Nine molecules from US6403830B2, “Amidino compound and salts thereof useful as nitric oxide synthase inhibitors” (Pharmacia Corporation, priority 2000, dated 2002) can be followed below.

Assay [1] addresses T1, Human inducible NOS (hiNOS) (Homo sapiens, UniProt P35228).
T1 construct: made in house; host or cells: Sf9 insect cells (baculovirus vector)
The experiment in a line: Citrulline assay for nitric oxide synthase, hiNOS. The class given is biochemical. The note with it: recombinant enzyme, 30 μM L-arginine; averages across all experiments and all lots. The source says:
(§1) Nitric oxide synthase (NOS) activity can be measured by monitoring the conversion of L-[2,3-^3H]-arginine to L-[2,3-^3H]-citrulline (Bredt and Snyder, Proc. Natl. Acad. Sci. U.S.A., 87, 682-685, 1990 and Moore et al, J. Med. Chem. 39, 669-672, 1996). Human inducible NOS (hiNOS), human endothelial constitutive NOS (hecNOS) and human neuronal constitutive NOS (hncNOS) are each cloned from RNA extracted from human tissue. The cDNA for human inducible NOS (hiNOS) is isolated from a λcDNA library made from RNA extracted from a colon sample from a patient with ulcerative colitis. The cDNA for human endothelial constitutive NOS (hecNOS) is isolated from a λcDNA library made from RNA extracted from human umbilical vein endothelial cells (HUVEC) and the cDNA for human neuronal constitutive NOS (hncNOS) is isolated from a λcDNA library made from RNA extracted from human cerebellum obtained from a cadaver. The recombinant enzymes are expressed in Sf9 insect cells using a baculovirus vector (Rodi et al, in The Biology of Nitric Oxide, Pt. 4: Enzymology, Biochemistry and Immunology: Moncada, S., Feelisch, M., Busse, R., Higgs, E., Eds.; Portland Press Ltd.: London, 1995; pp 447-450). Enzyme activity is isolated from soluble cell extracts and partially purified by DEAE-Sepharose chromatography. To measure NOS activity, 10 μL of enzyme is added to 40 μL of 50 mM Tris (pH 7.6) in the presence or absence of test compounds and the reaction initiated by the addition of 50 μL of a reaction mixture containing 50 mM Tris (pH 7.6), 2.0 mg/mL bovine serum albumin, 2.0 mM DTT, 4.0 mM CaCl2, 20 μM FAD, 100 μM tetrahydrobiopterin, 0.4 mM NADPH and 60 μM L-arginine containing 0.9 μCi of L-[2,3-^3H]-arginine. The final concentration of L-arginine in the assay is 30 μM. For hecNOS or hncNOS, calmodulin is included at a final concentration of 40-100 nM. Following incubation at 37° C. for 15 minutes, the reaction is terminated by addition of 400 μL of a suspension (1 part resin, 3 parts buffer) of Dowex 5OW X-8 cation exchange resin in a stop buffer containing 10 mM EGTA, 100 mM HEPES, pH 5.5 and 1 mM L-citrulline. After mixing the resin is allowed to settle and L-[2,3-^3H]-Citrulline formation is determined by counting aliquots of the supernatant with a liquid scintillation counter. Results are reported in Table 1 as the IC50 values of compounds for hiNOS, hecNOS and hncNOS.

Assay [2] deals with T2, human endothelial constitutive NOS (hecNOS) (Homo sapiens, UniProt P29474).
T2 construct: made in house; host or cells: Sf9 insect cells (baculovirus vector)
In words: Citrulline assay for nitric oxide synthase, hecNOS. Format: biochemical. The note with it: recombinant enzyme, 30 μM L-arginine, calmodulin; averages across all experiments and all lots.
Excerpt: as §1

The test system of assay [3] is nitrite production in human cartilage explants induced with recombinant human IL-1β. The experiment in a line: Human Cartilage Explant Assay. The class given is cell-based. The settings on record: inhibition of nitrite production, IL-1β-stimulated explants, averages across all experiments and all lots.
Experimental: Bone pieces are rinsed twice with Dulbecco's Phosphate Buffered Saline (GibcoBRL) and once with Dulbecco's Modified Eagles Medium (GibcoBRL) and placed into a petri dish with phenol red free Minimum Essential Medium (MEM) (GibcoBRL). Cartilage was cut into small explants of approximately 15-45 mg in weight and one or two explants per well are placed into either 96 or 48 well culture plates with 200-500 μL of culture media per well. The culture media was either a custom modification of Minimum Essential Medium(Eagle) with Earle's salts (GibcoBRL) prepared without L-Arginine, without L-Glutamine and without phenol red or a custom modification of serumless Neuman and Tytell (GibcoBRL) medium prepared without L-arginine, without insulin, without ascorbic acid, without L-glutamine and without phenol red. Both are supplemented before use with 100 μM L-Arginine (Sigma), 2 mM L-glutamine, 1×HL-1 supplement (BioWhittaker), 50 mg/ml ascorbic acid (Sigma) and 150 pg/ml recombinant human IL-1β (RD Systems) to induce nitric oxide synthase. Compounds are then added in 10 μL aliquots and the explants incubated at 37° C. with 5% CO2 for 18-24 hours. […] This supernatant is analyzed for nitrite with a fluorometric assay (Misko et al, Anal. Biochem., 214, 11-16, 1993). […]
The target in assay [4] is T3, human neuronal constitutive NOS (hncNOS) (Homo sapiens, UniProt P29475).
T3 construct: made in house; host or cells: Sf9 insect cells (baculovirus vector)
In words: Citrulline assay for nitric oxide synthase, hncNOS. The note with it: recombinant enzyme, 30 μM L-arginine, calmodulin; averages across all experiments and all lots. Format: biochemical.
Excerpt: as §1

Molecules are shown by their SMILES. Counter-ions that a name gives are not always drawn.

T1 sequence (P35228 whole entry): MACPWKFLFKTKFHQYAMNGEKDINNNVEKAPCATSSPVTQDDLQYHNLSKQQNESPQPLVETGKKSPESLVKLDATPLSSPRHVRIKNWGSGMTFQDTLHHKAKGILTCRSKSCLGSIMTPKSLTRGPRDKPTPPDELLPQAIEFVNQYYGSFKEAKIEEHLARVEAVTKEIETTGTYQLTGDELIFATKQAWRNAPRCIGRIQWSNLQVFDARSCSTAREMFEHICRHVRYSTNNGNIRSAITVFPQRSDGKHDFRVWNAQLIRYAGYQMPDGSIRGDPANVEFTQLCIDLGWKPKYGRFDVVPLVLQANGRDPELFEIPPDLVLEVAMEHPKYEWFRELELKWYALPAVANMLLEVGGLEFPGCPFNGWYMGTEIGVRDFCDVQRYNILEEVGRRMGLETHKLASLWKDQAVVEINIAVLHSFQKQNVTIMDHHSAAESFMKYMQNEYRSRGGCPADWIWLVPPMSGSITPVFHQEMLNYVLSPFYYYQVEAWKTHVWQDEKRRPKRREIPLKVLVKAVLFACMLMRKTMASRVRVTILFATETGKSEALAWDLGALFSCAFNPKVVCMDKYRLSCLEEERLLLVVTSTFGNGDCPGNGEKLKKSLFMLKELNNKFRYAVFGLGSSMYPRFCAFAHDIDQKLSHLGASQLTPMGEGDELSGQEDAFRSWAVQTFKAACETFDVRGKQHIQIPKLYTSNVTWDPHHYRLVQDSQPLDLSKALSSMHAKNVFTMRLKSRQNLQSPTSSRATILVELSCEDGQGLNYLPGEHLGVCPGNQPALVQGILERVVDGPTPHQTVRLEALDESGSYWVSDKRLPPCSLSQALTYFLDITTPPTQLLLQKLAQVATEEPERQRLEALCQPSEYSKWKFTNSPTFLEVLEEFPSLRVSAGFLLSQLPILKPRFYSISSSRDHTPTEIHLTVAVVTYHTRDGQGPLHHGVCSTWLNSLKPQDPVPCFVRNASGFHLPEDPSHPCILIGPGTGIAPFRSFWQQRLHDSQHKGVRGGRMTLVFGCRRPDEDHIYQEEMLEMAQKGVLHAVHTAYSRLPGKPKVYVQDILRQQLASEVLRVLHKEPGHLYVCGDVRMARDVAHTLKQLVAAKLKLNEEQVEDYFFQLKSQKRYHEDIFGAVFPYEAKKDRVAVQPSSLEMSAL
T3 sequence (P29475 whole entry): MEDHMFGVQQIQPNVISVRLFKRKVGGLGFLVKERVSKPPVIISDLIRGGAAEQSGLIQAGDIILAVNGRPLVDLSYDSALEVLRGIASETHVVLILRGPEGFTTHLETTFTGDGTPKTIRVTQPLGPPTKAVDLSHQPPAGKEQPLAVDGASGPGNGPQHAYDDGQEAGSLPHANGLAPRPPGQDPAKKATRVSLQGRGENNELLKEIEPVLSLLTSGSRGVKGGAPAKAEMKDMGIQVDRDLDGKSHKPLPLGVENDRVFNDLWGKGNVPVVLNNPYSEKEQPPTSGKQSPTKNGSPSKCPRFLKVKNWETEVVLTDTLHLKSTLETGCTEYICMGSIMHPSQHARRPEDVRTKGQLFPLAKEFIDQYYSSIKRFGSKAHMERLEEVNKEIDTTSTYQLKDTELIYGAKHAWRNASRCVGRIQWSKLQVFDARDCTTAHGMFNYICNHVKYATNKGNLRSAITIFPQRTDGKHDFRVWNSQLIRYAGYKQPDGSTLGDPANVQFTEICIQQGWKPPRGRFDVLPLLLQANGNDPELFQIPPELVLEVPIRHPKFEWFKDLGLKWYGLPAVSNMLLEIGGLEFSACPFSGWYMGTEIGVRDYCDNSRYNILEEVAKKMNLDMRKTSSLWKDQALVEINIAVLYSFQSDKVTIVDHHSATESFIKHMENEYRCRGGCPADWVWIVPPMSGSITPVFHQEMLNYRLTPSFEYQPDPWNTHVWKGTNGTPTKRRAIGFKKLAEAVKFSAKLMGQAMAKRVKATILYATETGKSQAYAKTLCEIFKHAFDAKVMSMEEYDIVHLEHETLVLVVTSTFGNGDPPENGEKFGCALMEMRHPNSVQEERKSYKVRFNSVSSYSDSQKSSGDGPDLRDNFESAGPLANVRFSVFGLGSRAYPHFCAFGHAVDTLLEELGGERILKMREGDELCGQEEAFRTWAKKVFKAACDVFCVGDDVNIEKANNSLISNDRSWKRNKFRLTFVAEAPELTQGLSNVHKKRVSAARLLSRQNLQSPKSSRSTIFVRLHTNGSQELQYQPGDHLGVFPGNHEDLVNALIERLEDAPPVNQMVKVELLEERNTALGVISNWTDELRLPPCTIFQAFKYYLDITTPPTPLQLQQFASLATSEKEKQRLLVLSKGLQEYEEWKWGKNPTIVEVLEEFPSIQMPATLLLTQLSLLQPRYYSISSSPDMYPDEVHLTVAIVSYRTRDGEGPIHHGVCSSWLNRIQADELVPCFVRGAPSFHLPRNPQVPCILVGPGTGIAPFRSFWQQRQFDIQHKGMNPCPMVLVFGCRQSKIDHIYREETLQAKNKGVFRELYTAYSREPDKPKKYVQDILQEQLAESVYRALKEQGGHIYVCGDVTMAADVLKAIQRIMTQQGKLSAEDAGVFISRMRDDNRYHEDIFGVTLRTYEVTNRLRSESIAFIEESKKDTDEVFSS
T2 sequence (P29474 2-1203): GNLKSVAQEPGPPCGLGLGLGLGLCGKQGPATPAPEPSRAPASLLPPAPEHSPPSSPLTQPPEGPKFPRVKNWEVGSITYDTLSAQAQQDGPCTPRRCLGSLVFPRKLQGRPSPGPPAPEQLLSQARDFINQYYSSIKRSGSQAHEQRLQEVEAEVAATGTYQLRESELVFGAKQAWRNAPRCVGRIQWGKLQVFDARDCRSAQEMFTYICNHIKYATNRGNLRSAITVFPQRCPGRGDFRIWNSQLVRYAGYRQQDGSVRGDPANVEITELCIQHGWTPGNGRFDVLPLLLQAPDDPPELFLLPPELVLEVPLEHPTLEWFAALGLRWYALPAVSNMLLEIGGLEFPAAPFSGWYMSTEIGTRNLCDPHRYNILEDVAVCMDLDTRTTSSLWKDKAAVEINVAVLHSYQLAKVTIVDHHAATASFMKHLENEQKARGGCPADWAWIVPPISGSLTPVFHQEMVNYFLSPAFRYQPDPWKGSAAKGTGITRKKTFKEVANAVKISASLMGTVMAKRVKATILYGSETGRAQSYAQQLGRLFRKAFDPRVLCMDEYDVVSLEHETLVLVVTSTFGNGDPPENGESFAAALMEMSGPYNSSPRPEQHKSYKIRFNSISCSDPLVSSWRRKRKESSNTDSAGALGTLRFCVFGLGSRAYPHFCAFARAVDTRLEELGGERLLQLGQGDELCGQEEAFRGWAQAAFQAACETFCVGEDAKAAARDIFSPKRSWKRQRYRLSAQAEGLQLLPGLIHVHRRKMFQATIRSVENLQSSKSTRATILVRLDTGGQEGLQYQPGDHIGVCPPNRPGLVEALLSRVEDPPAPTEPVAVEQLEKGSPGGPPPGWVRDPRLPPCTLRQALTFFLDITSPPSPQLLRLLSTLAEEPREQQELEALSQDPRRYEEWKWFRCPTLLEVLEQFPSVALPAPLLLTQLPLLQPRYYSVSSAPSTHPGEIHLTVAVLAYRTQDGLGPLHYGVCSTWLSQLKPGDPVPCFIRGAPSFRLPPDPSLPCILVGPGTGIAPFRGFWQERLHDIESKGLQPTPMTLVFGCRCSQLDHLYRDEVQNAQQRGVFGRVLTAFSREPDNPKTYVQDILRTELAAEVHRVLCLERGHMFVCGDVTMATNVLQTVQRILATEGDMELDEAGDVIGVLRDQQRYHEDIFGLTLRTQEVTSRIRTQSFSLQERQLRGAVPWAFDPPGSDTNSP

With `CC(=N)NCCSCC(C)(N)C(=O)O` (stereo not drawn) [Example 16, S-[2-(1-Iminoethylamino)ethyl]-2-methyl-(D/L)-cysteine, bistrifluoroacetate], the IC50 (usually the concentration at which inhibition is half-maximal) in assay [1] was 7.2 µM; in assay [2], more than 100 µM; in assay [3], 0.7 µM; in assay [4], 36 µM.

Turning to `CC[C@](N)(CSCCNC(C)=N)C(=O)O` [Example 7, S-[2-[(1-Iminoethyl)amino]ethyl]-2-ethyl-L-cysteine, dihydrochloride], the IC50 in assay [1] came out at 3.4 µM; in assay [2] it was 78 µM; in assay [4], 17 µM.

As for `CC(=N)NCCSC[C@](N)(C(=O)O)C(C)C` [Example 11, 2-[[[[2-(1-Iminoethyl)amino]ethyl]thio]methyl]-D-valine, dihydrochloride], the figures for the IC50 in assay [1], in assay [2] and in assay [4] were 0.9 µM, 26 µM and 6 µM, respectively.

For the molecule `CC(=N)NC[C@H](C)SC[C@](C)(N)C(=O)O` [Example 4, S-[(1S)-2-[(1-Iminoethyl)aminol-1-methylethyl]-2-methyl-L-cysteine, dihydrochloride], the results for the IC50 in assay [1], in assay [2] and in assay [4] were 197 µM, 1100 µM and 539 µM, respectively.

Take `CC(=N)NCCS(=O)(=O)C[C@](C)(N)C(=O)O` [Example 19, (2R)-2-Amino-3[[2-[(1-iminoethyl)amino]ethyl]sulfonyl]-2-methylpropanoic acid dihydrochloride]: the IC50 in assay [1] was found to be 12 µM; in assay [2], 1080 µM; in assay [4], 220 µM.

Consider `CC(=N)NCCSC[C@](C)(N)C(=O)O` [Example 1, S-[2-[(1-Iminoethyl)amino]ethyl]-2-methyl-L-cysteine, dihydrochloride], for which the IC50 in assay [1] turned out to be 3.1 µM; in assay [2], 77 µM; in assay [3], 0.7 µM; in assay [4], 15 µM.

As for `COC[C@](N)(CSCCNC(C)=N)C(=O)O` [Example 2, 2-[[[2-[(1-Iminoethyl)amino]ethyl]thio]methyl]-O-methyl-D-serine, dihydrochloride], the half-maximal inhibitory concentration (IC50) in assay [1] worked out at 4.4 µM; in assay [2], 302 µM; in assay [4], 58 µM.

As to `CC(=N)NCC[S+]([O-])C[C@](C)(N)C(=O)O` (mixture of isomers) [Example 18, (2R)-2-Amino-3[[2-[(1-iminoethyl)amino]ethyl]sulfmyl]-2-methylpropanoic acid, dihydrochloride], the IC50 in assay [1] was 12 µM; in assay [2], more than 100 µM; in assay [4] it was 181 µM.

Turning to `CC(=N)NC[C@@H](C)SC[C@](C)(N)C(=O)O` [Example 3, S-[(1R)-2-[(1-Iminoethyl)amino]-1-methylethyl]-2-methyl-L-cysteine, dihydrochloride], the figures for the IC50 in assay [1], in assay [2] and in assay [4] were 74 µM, 266 µM and 86 µM, respectively.
